Data reported in US6410557B1, “Dry skin remedies” (Daiichi Pharmaceutical Col, Ltd., priority 1999, dated 2002).
Like-named read-outs stand apart in the source and are kept apart here.

Columns and labels:
[1] = tested on: Rat Foot Skin; assay: Promoting action on the secretion of sweat in rat foot skin (starch-iodine reaction); assay type: in vivo
Protocol: A pharmacological activity test was carried out using 6 male Wister rats (body weight 199-238 g) in one group. After fasting for 1 day, rats were anesthetized by 50 mg/kg of sodium pentobarbital which was intraperitoneally administered, and an endotracheal tube was inserted to maintain the airway.
The soles of the right and left feet were cleaned with 70% ethanol, then 95% ethanol containing 2% of iodine was applied and allowed to dry. Castor oil containing 50% corn starch was coated to the soles of both feet, 5 minutes later a solvent alone or 1,3,10, and 30 mg/kg of cis-2-methylspiro(1,3-oxathiolane-5,3′)quinuclidine hydrochloride were administered intravenously.

[2] = tested on: Humans
Protocol: A multi-facility double blind comparison study was carried out for examination of perspiration promoting action on human, by preparing capsules containing 30 or 60 mg of cis-2-methylspiro(1,3-oxathiolane-5,3′)quinuclidine hydrochloride. 75 Americans (69 White, 1 Black, and 5 Hispanic subjects) were divided into 3 groups randomly. Each group received either one placebo capsule (0 mg), one 30 mg capsule, or one 60 mg capsule orally administered three times a day for 6 weeks. The increase of perspiration in each group was tested.

[3] = 30 mg capsule orally × 3/day for 6 weeks, 25 subjects
[4] = 60 mg capsule orally × 3/day for 6 weeks, 27 subjects

SMILES	effect on the sweat secretion promoting activity of the quinuclidine hydrochloride ([1]; rat soles of feet)	sweat secretion on the soles of both feet (number of colored points, degree of perspiration) ([1]; anesthetized male Wister rats, 1, 3, 10 and 30 mg/kg intravenously, FIG. 1)	Number of Subjects Showing perspiration [2, 3]	Number of Subjects Showing perspiration (%) [2, 3] [%]	Number of Subjects Showing perspiration [2, 4]	Number of Subjects Showing perspiration (%) [2, 4] [%]	sweat secretion of human ([2]; capsules, oral, three times a day for 6 weeks)
CN1[C@@H]2CC[C@H]1C[C@@H](OC(=O)C(CO)c1ccccc1)C2 (stereo partly shown) [atropine, reference compound]	blocks this activity	–	–	–	–	–	–
CC1OC2(CS1)CN1CCC2CC1.Cl (stereo not drawn) [cis-2-methylspiro(1,3-oxathiolane-5,3′)quinuclidine hydrochloride]	–	promoted depending on the dose level	4	16.0	13	48.1	remarkably promoted
